According to US20260265244A1, “HETEROCYCLIC COMPOUNDS AS STING ANTAGONISTS” (Boehringer Ingelheim International GmbH, priority 2022, published 2026):

Assays:
human STING WT (R232) = biological target: T1, human STING WT (R232) (Homo sapiens, UniProt Q86WV6, H232R); experiment: Human STING HTRF binding assay (competitive, Cisbio 64BDSTGPEG)
T1 construct: purchased Cisbio 64BDSTGPEG
Procedure: Binders to human STING WT (R232) were identified using a competitive HTRF assay format (Cisbio 64BDSTGPEG), which uses d2-labeled STING ligand, a 6His (SEQ ID NO: 2) tagged human STING protein, and an anti 6His (SEQ ID NO: 2) Cryptate-labeled antibody. Compounds compete with the STING ligand-d2 and thereby prevents FRET from occurring, which can be measured by an EnVision™ reader (PerkinElmer).
Assay method: Compounds were delivered as 10 mM DMSO solution, serially diluted by an Agilent Bravo Workstation and transferred to the 384 well assay plate (Perkin Elmer #6005359) using a Cybiwell dispenser. Typically, 8 concentrations were used with the highest concentration at 10 μM or 1 μM in the final assay volume followed by ~1:5 dilution steps. DMSO concentration was set to 1% in the final assay volume. The 384 well assay plate contained 20 test compounds and DMSO in column 23 and 24. A cGAMP standard dilution row was prepared according to the manufacturer and transferred to each assay plate. After transfer of compound solution or dilution buffer for negative (high) and positive (low) controls, 5 μl of the human STING protein (cyclic binding domain (residues 138-379) of the WT R232 human version, fused to a 6 His tag (SEQ ID NO: 2) at the Nter part; 1:50 dilution in detection buffer) were dispensed to all wells except of the positive control, which received detection buffer only. Plates were the centrifuged for 20 sec at 1000 rpm. After that, 10 μl of Anti-6His-Cryptate antibody/Sting ligand-d2 mix was added to all wells using a Multidrop combi dispenser, followed by another sec/1000 rpm centrifugation step. After an incubation of the plates for 180 min at room temperature, […] at […] (HTRF ratio) was measured using an Envison Reader (PerkinElmer).
Data evaluation and calculation: For data evaluation and calculation, HTRF ratios were calibrated using the cGAMP standard curve. After that, the measurement of the low control was set as 0% control and the measurement of the high control was set as 100% control. The IC50 values were calculated using the standard 4 parameter logistic regression formula. Calculation: [y=(a−d)/(1+(x/c)^b)+d], a=low value, d=high value; x=conc M; c=IC50 M; b=slope;

[1] = tested on: STING inhibition in human whole blood (IFNα2α production); experiment: Human whole blood assay (HWBA): cGAMP-stimulated IFNα2α production; type: cell-based; settings: Homo sapiens
Procedure: For the detection of STING inhibition in physiological environment human whole blood was stimulated by the cyclic dinucleotide cGAMP. Pathway activity was monitored by measuring the IFNα2α production.
Assay method: Compounds were delivered as 10 mM DMSO solution and serial diluted and transferred to the 96-well Cell culture Plate (Corning #3595), prefilled with 20 μl OptiMEM (Gibco #11058-021) in each well, using an Echo acoustic dispenser. Typically, 8 concentrations were used with the highest concentration at 10 μM in the final assay volume followed by ~1:5 dilution steps. DMSO concentration was set to 0.1% in the final assay volume. The 96 well assay plate contained 9 test compounds, a reference compound and DMSO in control wells.
Collection of human whole blood from 3 or more healthy donors (male or female, no medication for 7 days, exception contraceptive and thyroxine) as Na-citrate blood (e.g. 3.8% in Monovettes from Sarstedt) is conducted in parallel. Whole blood was kept at room temperature for a maximum of 3 hours after collection until use in the assay.
160 μl of the whole blood samples were transferred to each well of the 96-well assay plates filled with compound/OptiMEM. All assay plates are prepared as duplicates with blood from different donors. Blood plates were kept at room temperature for 60 minutes and continuous shaking with 450 rpm, covered with the lid, but not sealed.
A 10× cGAMP assay solution was diluted from a 2 mM stock solution in 1×HBSS immediately before use at room temperature. 20 μl of the 10× cGAMP/HBSS were added to all compound and all high control wells, whereas HBSS only was added to all low control wells.
After covering assay plates with aera seals and the lid, blood plates were kept at room temperature for 30 minutes and continuous shaking with 450 rpm, followed by an overnight incubation of 22 h at 37° C. in the incubator, without shaking.
For the detection of IFNα-2α in human plasma, the biotinylated capture antibody (Antibody set IFNA2, Meso Scale Diagnostics #B21VH-3, including coating and capture antibody) was diluted 1:17.5 in Diluent 100 (Meso Scale Diagnostics #R50AA-4, according to the manufacturer. U-Plex MSD GOLD 96-well Small Spot Streptavidin SECTOR Plates (Meso Scale Diagnostics #L45SA-5) were coated with 25 μl diluted capture antibody. Coated plates were incubated for 60 min at room temperature under continuous shaking at 700 rpm. MSD IFNα-2α plates were washed three times with 150 μl wash buffer (1×HBSS, 0.05% Tween).
After blocking the plates with 100 μl block solution/well (1×HBSS with 0.2% Tween, 2% BSA) for 60 min at room temperature and continuous shaking at 700 rpm, plates were emptied as dry as possible by dumping just before continuing with the human plasma. Whole Blood assay plates were centrifuged at 1600 rpm for 10 minutes. 25 μl of supernatant was transferred with a pipetting robotics from each whole blood plate to the corresponding IFNα-2α plate. Plates were sealed with microplate seals and kept at room temperature again under continuous shaking at 700 rpm for two hours. Next MSD IFNα-2α plates were washed three times with 150 μl wash buffer (1×HBSS, 0.05% Tween), before adding 25 μl MSD SULFO-TAG IFNα-2α Antibody solution (1:100 diluted in Diluent 3 (Meso Scale Diagnostics #R50AP-2) to each well of the plates. Afterwards plates were sealed with microplate seals and kept at room temperature again under continuous shaking at 700 rpm for two hours. Finally MSD IFNα-2α plates were washed three times with 150 μl wash buffer (1×HBSS, 0.05% Tween). 150 μl 2×Read buffer was added to each well and plates were immediately measured with the MSD Sector S600 Reader using the vendor barcode.
Data evaluation and calculation: For data evaluation and calculation, % control calculation of each well was based on the mean of high (cGAMP stimulated control) and mean of low (unstimulated control) controls by using the following formula: […]

T1 sequence (Q86WV6 138-379 H232R): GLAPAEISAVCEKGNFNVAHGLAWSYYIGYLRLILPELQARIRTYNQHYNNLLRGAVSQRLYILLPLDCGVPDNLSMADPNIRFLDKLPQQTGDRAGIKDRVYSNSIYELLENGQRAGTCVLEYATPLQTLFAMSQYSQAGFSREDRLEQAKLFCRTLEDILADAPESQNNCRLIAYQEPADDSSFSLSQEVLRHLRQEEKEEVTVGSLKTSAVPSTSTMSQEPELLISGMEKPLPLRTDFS

| SMILES | IC50 (human STING WT (R232)) | IC50 [1] |
| --- | --- | --- |
| Cc1c(C(C)C)c(-c2cccc3nn(C[C@H](O)c4ccccc4)cc23)nn1-c1cc2cn(C)nc2nc1C(C)O (stereo partly drawn) [Example 19, (1R)-2-(4-{1-[6-(1-hydroxyethyl)-2-methyl-2H-pyrazolo[3,4-b]pyridin-5-yl]-5-methyl-4-(propan-2-yl)-1H-pyrazol-3-yl}-2H-indazol-2-yl)-1-phenylethan-1-ol] | 16.1 nM | 82 nM |
| CSc1nc2nn(C)cc2cc1-n1nc(-c2cccc3nn(C[C@H](O)c4ccccc4)cc23)c(C(C)C)c1C [Example 20, (1R)-2-(4-{5-methyl-1-[2-methyl-6-(methylsulfanyl)-2H-pyrazolo[3,4-b]pyridin-5-yl]-4-(propan-2-yl)-1H-pyrazol-3-yl}-2H-indazol-2-yl)-1-phenylethan-1-ol] | 17.4 nM | 84 nM |
| Cc1nc2nn(CCCN3CCCC3=O)cc2cc1-n1nc(-c2cccc3nn(C[C@H](O)c4ccccc4)cc23)c(C(C)C)c1C [Example 21, 1-{3-[5-(3-{2-[(2R)-2-hydroxy-2-phenylethyl]-2H-indazol-4-yl}-5-methyl-4-(propan-2-yl)-1H-pyrazol-1-yl)-6-methyl-2H-pyrazolo[3,4-b]pyridin-2-yl]propyl}pyrrolidin-2-one] | 4.9 nM | 85 nM |
| CC(C)c1nc2nn(C)cc2cc1-c1nc(-c2cccc3nn(C[S@@+]([O-])c4ccccc4)cc23)c(C2CC2)n1C [Example 22, 2-{[(S)-benzenesulfinyl]methyl}-4-{5-cyclopropyl-1-methyl-2-[2-methyl-6-(propan-2-yl)-2H-pyrazolo[3,4-b]pyridin-5-yl]-1H-imidazol-4-yl}-2H-indazole] | 20 nM | 86 nM |
| Cc1c(C(C)C)c(-c2cccc3nn(C[C@H](O)c4ccccc4)cc23)nn1-c1cc2cn(C)nc2nc1OC(C)C [Example 23, (1R)-2-(4-{5-methyl-1-[2-methyl-6-(propan-2-yloxy)-2H-pyrazolo[3,4-b]pyridin-5-yl]-4-(propan-2-yl)-1H-pyrazol-3-yl}-2H-indazol-2-yl)-1-phenylethan-1-ol] | 18.8 nM | 89 nM |
| Cc1nc2nn(Cc3cnn(C)c3)cc2cc1-n1nc(-c2cccc3nn(C[C@H](O)c4ccccc4)cc23)c(C(C)C)c1C [Example 24, (1R)-2-[4-(5-methyl-1-{6-methyl-2-[(1-methyl-1H-pyrazol-4-yl)methyl]-2H-pyrazolo[3,4-b]pyridin-5-yl}-4-(propan-2-yl)-1H-pyrazol-3-yl)-2H-indazol-2-yl]-1-phenylethan-1-ol] | 4.9 nM | 92 nM |
| Cc1ccc([C@@H](O)Cn2cc3c(-c4nc(-c5cc6cn(C)nc6nc5C(C)C)n(C)c4C4CC4)cccc3n2)cc1 [Example 25, (1R)-2-(4-{5-cyclopropyl-1-methyl-2-[2-methyl-6-(propan-2-yl)-2H-pyrazolo[3,4-b]pyridin-5-yl]-1H-imidazol-4-yl}-2H-indazol-2-yl)-1-(4-methylphenyl)ethan-1-ol] | 18.1 nM | 97 nM |
| Cc1c(C(C)C)c(-c2cccc3nn(C[C@H](O)c4ccccc4)cc23)nn1-c1cc2cn(C)nc2nc1CN1CCOCC1 [Example 26, (1R)-2-[4-(5-methyl-1-{2-methyl-6-[(morpholin-4-yl)methyl]-2H-pyrazolo[3,4-b]pyridin-5-yl}-4-(propan-2-yl)-1H-pyrazol-3-yl)-2H-indazol-2-yl]-1-phenylethan-1-ol] | 42.8 nM | 110 nM |
| Cc1nc2nn(C)cc2cc1-n1nc(-c2cccc3nn(C[C@H](OCF)c4ccccc4)cc23)c(C(C)C)c1C [Example 27, 4-(1-{2,6-dimethyl-2H-pyrazolo[3,4-b]pyridin-5-yl}-5-methyl-4-(propan-2-yl)-1H-pyrazol-3-yl)-2-[(2R)-2-(fluoromethoxy)-2-phenylethyl]-2H-indazole] | 14.5 nM | 110 nM |
| Cn1c(-c2cc3cn(CCCN4CCCC4=O)nc3nc2C2CC2)nc(-c2cccc3nn(C[C@H](O)c4ccccc4)cc23)c1C1CC1 [Example 28, 1-{3-[6-cyclopropyl-5-(5-cyclopropyl-4-{2-[(2R)-2-hydroxy-2-phenylethyl]-2H-indazol-4-yl}-1-methyl-1H-imidazol-2-yl)-2H-pyrazolo[3,4-b]pyridin-2-yl]propyl}pyrrolidin-2-one] | 8.4 nM | 110 nM |
| Cc1c(C2CC2)c(-c2cccc3nn(C[C@H](O)c4ccccc4)cc23)nn1-c1cc2cn(C)nc2nc1C1CC1 [Example 29, (1R)-2-[4-(4-cyclopropyl-1-{6-cyclopropyl-2-methyl-2H-pyrazolo[3,4-b]pyridin-5-yl}-5-methyl-1H-pyrazol-3-yl)-2H-indazol-2-yl]-1-phenylethan-1-ol] | 2.8 nM | 110 nM |
| CCO[C@@H](Cn1cc2c(-c3nn(-c4cc5cn(C)nc5nc4C)c(C)c3C(C)C)cccc2n1)c1ccccc1 [Example 30, 4-(1-{2,6-dimethyl-2H-pyrazolo[3,4-b]pyridin-5-yl}-5-methyl-4-(propan-2-yl)-1H-pyrazol-3-yl)-2-[(2R)-2-ethoxy-2-phenylethyl]-2H-indazole] | 18.2 nM | 110 nM |
| Cc1nc2nn(CCCO)cc2cc1-n1nc(-c2cccc3nn(C[C@H](O)c4ccccc4)cc23)c(C(C)C)c1C [Example 32, 3-[5-(3-{2-[(2R)-2-hydroxy-2-phenylethyl]-2H-indazol-4-yl}-5-methyl-4-(propan-2-yl)-1H-pyrazol-1-yl)-6-methyl-2H-pyrazolo[3,4-b]pyridin-2-yl]propan-1-ol] | 8.6 nM | 110 nM |
| CC(C)n1cc2cc(-c3nc(-c4cccc5nn(C[C@H](O)c6ccccc6)cc45)c(C4CC4)n3C)c(C3CC3)nc2n1 [Example 33, (1R)-2-(4-{5-cyclopropyl-2-[6-cyclopropyl-2-(propan-2-yl)-2H-pyrazolo[3,4-b]pyridin-5-yl]-1-methyl-1H-imidazol-4-yl}-2H-indazol-2-yl)-1-phenylethan-1-ol] | 6.1 nM | 110 nM |
